Experimental findings from patent US9579319B2 (Redx Pharma PLC, priority 2013, dated 2017) are described below.

The test system of this assay is Hedgehog signalling pathway. Briefly: Gli-reporter NIH3T3 luciferase assay (Hedgehog pathway inhibition). The assay is classed as cell-based. The following applies: NIH3T3, Gli-reporter NIH-3T3 cells, recombinant mouse sonic hedgehog, 24 hours, luminescence. As for the experimental part: In vitro biological evaluation of compounds of the invention was carried out using the procedure detailed below. The procedure provides activity data for the compounds of the invention against the Hedgehog signalling pathway. The activity is represented as IC50 values in Table 12 below.
The Gli-reporter NIH3T3 cell line (BPS Biosciences) was grown according to the suppliers recommendations. Briefly, cells were maintained in growth medium (DMEM supplemented with 10% calf serum, 1% Penicillin/Streptomycin, and 500 µg/mL of Geneticin) and grown at 37° C., 5% CO2. In order to passage cells they were first rinsed with phosphate buffered saline before the addition of 0.05% Trypsin/EDTA. Fresh growth media was added and the cells were transferred to a centrifuge tube, spun and resuspended at an appropriate cell density.
Gli-reporter NIH-3T3 cells were seeded at 20,000 cells/well into 96 well, poly-D-lysine coated white clear bottomed full area TC plates in growth media (without geneticin). Three wells were left with just media as cell free controls. Cells were then incubated for 24 hours at 37° C. in a 5% CO2.
Serial dilutions of the test compounds were prepared in 100% DMSO. 10 μl of compound or DMSO from each well was pipetted into a sterile, 0.5 ml deep well conical bottomed 96 well plate (intermediate plate). 190 μl of warmed assay media (Opti-MEM supplemented with 0.5% calf serum, 1% non-essential amino acids, 1 mM sodium pyruvate, 10 mM HEPES, 1% penicillin/Streptomycin) was then added to each well and mixed five times at 180 μl by electronic pipette to ensure homogeneity of the compound solution. This 1:20 dilution gives a top concentration of 50 μM in 5% DMSO, 95% assay media. 10 μl was pipetted from each well of the intermediate plate into a second deep well sterile plate. 490 μl of warm assay media was then added to each well and mixed five times at 300 μl. This gives a final top concentration of 1 μM in 0.1% DMSO.
After the 24 hour incubation, media was carefully removed by pipette and replaced with 45 μl of compound dilutions in triplicate. This was incubated for one hour at 37° C. in a 5% CO2. After an hour, 5 μl 10 μg/mL recombinant mouse sonic hedgehog (R&D Systems) was added to each well and the plates were incubated for a further 24 hours at 37° C., 5% CO2.
After 24 hours, plates were removed from the incubator and left to acclimatise to room temperature for 20 minutes. 50 μl of OneGLO assay reagent (Promega) was then added to each well and the plates gently shaken for a further 30 minutes. Plates were then read for luminescence on the EnVision plate reader (PerkinElmer).

Setting [1] is: read-out: Category (Hedgehog pathway inhibition activity, IC50).

In general, IC50 refers to the point on the concentration scale where inhibition reaches its midpoint.

Like-named read-outs stand apart in the source and are kept apart here.

Turning to `Cn1nccc1-c1nnc(N2CCC(NCc3cccc(C(F)(F)F)c3)CC2)c2ccccc12` [Example 39, 1-[4-(2-methylpyrazol-3-yl)phthalazin-1-yl]-N-[[3-(trifluoromethyl)phenyl]methyl]piperidin-4-amine], the concentration for half-maximal inhibition (IC50) under setting [1] was 10 to 200 nM.

Consider `Cn1nccc1-c1nnc(N2CCC(NCc3ccccc3C(F)(F)F)CC2)c2ccccc12` [Example 40, 1-[4-(2-methylpyrazol-3-yl)phthalazin-1-yl]-N-[[2-(trifluoromethyl)phenyl]methyl]piperidin-4-amine], for which the half-maximal inhibitory concentration (IC50) under setting [1] is less than 10 nM.

With `Cc1c(-c2ccnn2C)nnc(N2CCC(N(C)Cc3ccc(F)cc3C(F)(F)F)CC2)c1C` [Example 41, 1-[4,5-dimethyl-6-(2-methylpyrazol-3-yl)pyridazin-3-yl]-N-[[4-fluoro-2-(trifluoromethyl)phenyl]methyl]-N-methyl-piperidin-4-amine], the IC50 under setting [1] was 10 to 200 nM.

As for `CN(Cc1ccc(F)cc1C(F)(F)F)C1CCN(c2ccc(-c3ccnn3C)nn2)CC1` [Example 42, N-[[4-fluoro-2-(trifluoromethyl)phenyl]methyl]-N-methyl-1-[6-(2-methylpyrazol-3-yl)pyridazin-3-yl]piperidin-4-amine], the IC50 reads like this: under setting [1], less than 10 nM; (read-out: Gli Luc nM (IC50)) 0.04 nM.

With `CC(C)c1ccccc1CNC1CCN(c2nnc(-c3ccnn3C)c3ccccc23)CC1` [Example 43, N-[(2-isopropylphenyl)methyl]-1-[4-(2-methylpyrazol-3-yl)phthalazin-1-yl]piperidin-4-amine], under setting [1], the IC50 was 10 to 200 nM.

As to `Cn1nccc1-c1nnc(N2CCC(NCc3ccc(Cl)nc3C(F)(F)F)CC2)c2ccccc12` [Example 44, N-[[6-chloro-2-(trifluoromethyl)-3-pyridyl]methyl]-1-[4-(2-methylpyrazol-3-yl)phthalazin-1-yl]piperidin-4-amine], under setting [1], the IC50 is less than 10 nM.

For the compound `COc1ccc(NC(=O)NC2CCN(c3nnc(-c4ccnn4C)c4ccccc34)CC2)cc1` [Example 45, 1-(4-methoxyphenyl)-3-[1-[4-(2-methylpyrazol-3-yl)phthalazin-1-yl]-4-piperidyl]urea], the IC50 under setting [1] lay in the range of 10 to 200 nM.

On to `Cn1nccc1-c1nnc(N2CCC(NC(=O)Nc3ccccc3F)CC2)c2ccccc12` [Example 46, 1-(2-fluorophenyl)-3-[1-[4-(2-methylpyrazol-3-yl)phthalazin-1-yl]-4-piperidyl]urea], for which, under setting [1], the half-inhibitory concentration (IC50) was less than 10 nM.

In the case of `CN(Cc1ccc(F)cc1C(F)(F)F)C1CCN(c2nnc(-c3ccnn3C)c3ccncc23)CC1` [Example 47, N-[[4-fluoro-2-(trifluoromethyl)phenyl]methyl]-N-methyl-1-[1-(2-methylpyrazol-3-yl)pyrido[3,4-d]pyridazin-4-yl]piperidin-4-amine], the 50% inhibitory concentration (IC50) under setting [1] was less than 10 nM.

Turning to `CN(C1CCN(c2nnc(-c3ccnn3C)c3ccccc23)CC1)S(=O)(=O)c1ccc(F)cc1C(F)(F)F` [Example 48, 4-fluoro-N-methyl-N-[1-[4-(2-methylpyrazol-3-yl)phthalazin-1-yl]-4-piperidyl]-2-(trifluoromethyl)benzenesulfonamide], the IC50 under setting [1] is less than 10 nM.

As for `Cn1nccc1-c1nnc(N2CCC(NCc3ccc(F)cc3C(F)(F)F)CC2)c2cnccc12` [Example 49, N-[[4-fluoro-2-(trifluoromethyl)phenyl]methyl]-1-[1-(2-methylpyrazol-3-yl)pyrido[3,4-d]pyridazin-4-yl]piperidin-4-amine], the half-inhibitory concentration (IC50) under setting [1] fell in the range of 10 to 200 nM.

With `Cn1nccc1-c1nnc(N2CCC(NS(=O)(=O)c3ccc(F)cc3C(F)(F)F)CC2)c2ccccc12` [Example 50, 4-fluoro-N-[1-[4-(2-methylpyrazol-3-yl)phthalazin-1-yl]-4-piperidyl]-2-(trifluoromethyl)benzenesulfonamide], the IC50 is less than 10 nM under setting [1] and 1.79 nM (read-out: Gli Luc nM (IC50)).

Turning to `Cn1nccc1-c1nnc(N2CCC(NCc3ccncc3C(F)(F)F)CC2)c2ccccc12` [Example 51, 1-[4-(2-methylpyrazol-3-yl)phthalazin-1-yl]-N-[[3-(trifluoromethyl)-4-pyridyl]methyl]piperidin-4-amine], the IC50 under setting [1] fell in the range of 10 to 200 nM.

Turning to `CCOc1ccccc1CNC1CCN(c2nnc(-c3ccnn3C)c3ccccc23)CC1` [Example 52, N-[(2-ethoxyphenyl)methyl]-1-[4-(2-methylpyrazol-3-yl)phthalazin-1-yl]piperidin-4-amine], the IC50 under setting [1] was in the range of 10 to 200 nM.

Turning to `Cn1nccc1-c1nnc(N2CCC(Nc3ccc(F)cc3C(F)(F)F)CC2)c2ccccc12` [Example 53, N-[4-fluoro-2-(trifluoromethyl)phenyl]-1-[4-(2-methylpyrazol-3-yl)phthalazin-1-yl]piperidin-4-amine], under setting [1], the IC50 was less than 10 nM.

For `CN(Cc1ccc(F)cc1C(F)(F)F)C1CCCN(c2nnc(-c3ccnn3C)c3ccccc23)C1` (stereo not drawn) [Example 54, N-[[4-fluoro-2-(trifluoromethyl)phenyl]methyl]-N-methyl-1-[4-(2-methylpyrazol-3-yl)phthalazin-1-yl]piperidin-3-amine], the IC50 under setting [1] is 200 to 2000 nM.

Turning to `CN(Cc1ccc(F)cc1C(F)(F)F)C1CCN(c2nnc(-c3ccnn3C)c3ccccc23)C1` (stereo not drawn) [Example 55, N-[[4-fluoro-2-(trifluoromethyl)phenyl]methyl]-N-methyl-1-[4-(2-methylpyrazol-3-yl)phthalazin-1-yl]pyrrolidin-3-amine], the IC50 under setting [1] was in the range of 10 to 200 nM.

As for `Cn1nccc1-c1nnc(N2CCC(N(Cc3ccc(F)cc3C(F)(F)F)C(=O)C(F)(F)F)CC2)c2ccccc12` [Example 56, 2,2,2-trifluoro-N-[[4-fluoro-2-(trifluoromethyl)phenyl]methyl]-N-[1-[4-(2-methylpyrazol-3-yl)phthalazin-1-yl]-4-piperidyl]acetamide], the IC50 under setting [1] lay within 10 to 200 nM.

Turning to `Cn1nccc1-c1nnc(N2CCC(NCc3ccccc3)CC2)c2ccccc12` [Example 57, N-benzyl-1-[4-(2-methylpyrazol-3-yl)phthalazin-1-yl]piperidin-4-amine], the IC50 under setting [1] lay within 200 to 2000 nM.

As for `COc1nnc(N2CCC(NCc3ccc(F)cc3C(F)(F)F)CC2)c2ccccc12` [Example 58, N-[[4-fluoro-2-(trifluoromethyl)phenyl]methyl]-1-(4-methoxyphthalazin-1-yl)piperidin-4-amine], under setting [1], the IC50 was 200 to 2000 nM.

For `CN(Cc1ccccc1)C1CCN(c2nnc(-c3ccnn3C)c3ccccc23)CC1` [Example 59, N-benzyl-N-methyl-1-[4-(2-methylpyrazol-3-yl)phthalazin-1-yl]piperidin-4-amine], under setting [1], the IC50 was 10 to 200 nM.

For the compound `CN(Cc1ccc(C#N)cc1)C1CCN(c2nnc(-c3ccnn3C)c3ccccc23)CC1` [Example 60, 4-[[methyl-[1-[4-(2-methylpyrazol-3-yl)phthalazin-1-yl]-4-piperidyl]amino]methyl]benzonitrile], under setting [1], the IC50 fell in the range of 10 to 200 nM.

Turning to `COc1ccccc1CN(C)C1CCN(c2nnc(-c3ccnn3C)c3ccccc23)CC1` [Example 61, N-[(2-methoxyphenyl)methyl]-N-methyl-1-[4-(2-methylpyrazol-3-yl)phthalazin-1-yl]piperidin-4-amine], the IC50 under setting [1] lay in the range of 200 to 2000 nM.

For `COc1cccc(CN(C)C2CCN(c3nnc(-c4ccnn4C)c4ccccc34)CC2)c1` [Example 62, N-[(3-methoxyphenyl)methyl]-N-methyl-1-[4-(2-methylpyrazol-3-yl)phthalazin-1-yl]piperidin-4-amine], under setting [1], the half-maximal inhibitory concentration (IC50) fell in the range of 10 to 200 nM.

In the case of `COc1ccc(CN(C)C2CCN(c3nnc(-c4ccnn4C)c4ccccc34)CC2)cc1` [Example 63, (4-methoxyphenyl)methyl-methyl-[1-[4-(2-methylpyrazol-3-yl)phthalazin-1-yl]-4-piperidyl]ammonium], the IC50 under setting [1] was in the range of 200 to 2000 nM.

As to `CN(Cc1ccccc1F)C1CCN(c2nnc(-c3ccnn3C)c3ccccc23)CC1` [Example 64, (2-fluorophenyl)methyl-methyl-[1-[4-(2-methylpyrazol-3-yl)phthalazin-1-yl]-4-piperidyl]ammonium], the IC50 under setting [1] was in the range of 10 to 200 nM.

With `CN(Cc1cccc(F)c1)C1CCN(c2nnc(-c3ccnn3C)c3ccccc23)CC1` [Example 65, (3-fluorophenyl)methyl-methyl-[1-[4-(2-methylpyrazol-3-yl)phthalazin-1-yl]-4-piperidyl]ammonium], the IC50 under setting [1] lay within 10 to 200 nM.

Consider `Cn1nccc1-c1nnc(N2CCC(NC(=O)OC(C)(C)C)CC2)c2ccccc12` [Example 66, tert-butyl N-[1-[4-(2-methylpyrazol-3-yl)phthalazin-1-yl]-4-piperidyl]carbamate], for which, under setting [1], the IC50 lay in the range of 10 to 200 nM.
